Measurements: the supplement of paper PMC11451515

System: NOMO1
Assay: cell viability relative to DMSO control; higher = less cytotoxic
Conditions: 48 h
In short: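 NOMO1, SEM and P12-Ichikawa leukemia cells spent at least four passages adapting to each medium before use. They were seeded at 500 cells/well (NOMO1, SEM) or 1000 cells/well (P12-Ichikawa) in 5 μl in 1536-well plates and pin-dosed with library compounds in DMSO at 11 threefold steps from 47 μM down to 0.79 nM. After 48 h at 37°C, CellTiter-Glo One luminescence was read. Viability is reported as a percentage of the DMSO wells on each plate, with cell-free wells as background.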

[1] = RPMI 5 mM glucose + 10% FBS, 0.000781 µM
[2] = RPMI 5 mM glucose + 10% FBS, 0.00234 µM
[3] = RPMI 5 mM glucose + 10% FBS, 0.00702 µM
[4] = RPMI 5 mM glucose + 10% FBS, 0.0211 µM
[5] = RPMI 5 mM glucose + 10% FBS, 0.0632 µM
[6] = RPMI 5 mM glucose + 10% FBS, 0.19 µM
[7] = RPMI 5 mM glucose + 10% FBS, 0.569 µM
[8] = RPMI 5 mM glucose + 10% FBS, 1.71 µM
[9] = RPMI 5 mM glucose + 10% FBS, 5.12 µM
[10] = RPMI 5 mM glucose + 10% FBS, 15.4 µM
[11] = RPMI 5 mM glucose + 10% FBS, 46.1 µM
[12] = RPMI 5 mM glucose + 10% dialyzed FBS, 0.000781 µM
[13] = RPMI 5 mM glucose + 10% dialyzed FBS, 0.00234 µM
[14] = RPMI 5 mM glucose + 10% dialyzed FBS, 0.00702 µM
[15] = RPMI 5 mM glucose + 10% dialyzed FBS, 0.0211 µM
[16] = RPMI 5 mM glucose + 10% dialyzed FBS, 0.0632 µM
[17] = RPMI 5 mM glucose + 10% dialyzed FBS, 0.19 µM
[18] = RPMI 5 mM glucose + 10% dialyzed FBS, 0.569 µM
[19] = RPMI 5 mM glucose + 10% dialyzed FBS, 1.71 µM
[20] = RPMI 5 mM glucose + 10% dialyzed FBS, 5.12 µM
[21] = RPMI 5 mM glucose + 10% dialyzed FBS, 15.4 µM
[22] = RPMI 5 mM glucose + 10% dialyzed FBS, 46.1 µM
[23] = HPLM + 10% dialyzed FBS, 0.000781 µM
[24] = HPLM + 10% dialyzed FBS, 0.00234 µM
[25] = HPLM + 10% dialyzed FBS, 0.00702 µM
[26] = HPLM + 10% dialyzed FBS, 0.0211 µM
[27] = HPLM + 10% dialyzed FBS, 0.0632 µM
[28] = HPLM + 10% dialyzed FBS, 0.19 µM
[29] = HPLM + 10% dialyzed FBS, 0.569 µM
[30] = HPLM + 10% dialyzed FBS, 1.71 µM
[31] = HPLM + 10% dialyzed FBS, 5.12 µM
[32] = HPLM + 10% dialyzed FBS, 15.4 µM
[33] = HPLM + 10% dialyzed FBS, 46.1 µM

Row | SMILES | cell viability [1] [%] | cell viability [2] [%] | cell viability [3] [%] | cell viability [4] [%] | cell viability [5] [%] | cell viability [6] [%] | cell viability [7] [%] | cell viability [8] [%] | cell viability [9] [%] | cell viability [10] [%] | cell viability [11] [%] | cell viability [12] [%] | cell viability [13] [%] | cell viability [14] [%] | cell viability [15] [%] | cell viability [16] [%] | cell viability [17] [%] | cell viability [18] [%] | cell viability [19] [%] | cell viability [20] [%] | cell viability [21] [%] | cell viability [22] [%] | cell viability [23] [%] | cell viability [24] [%] | cell viability [25] [%] | cell viability [26] [%] | cell viability [27] [%] | cell viability [28] [%] | cell viability [29] [%] | cell viability [30] [%] | cell viability [31] [%] | cell viability [32] [%] | cell viability [33] [%]
1 | CCC[S+](=O)([O-])Nc1ccc(F)c(C(=O)c2c[nH]c3ncc(Cl)cc23)c1F | 112 | 110 | 115 | 117 | 120 | 121 | 114 | 108 | 107 | 62.6 | 43.8 | 116 | 119 | 117 | 100 | 107 | 128 | 119 | 122 | 123 | 62.3 | 42.9 |  |  |  |  |  |  |  |  |  |  | 
2 | CCn1c(-c2nonc2N)nc2c(C#CC(C)(C)O)ncc(OC[C@H]3CCCNC3)c21 | 80.8 | 82.5 | 84.1 | 84.1 | 79.8 | 87.3 | 81 | 83.5 | 82 | 84.1 | 49.3 | 77.2 | 96.1 | 86.8 | 93.7 | 80.6 | 84.3 | 74.4 | 82 | 74.2 | 79.2 | 68.2 | 91.3 | 88.8 | 80 | 96 | 73.4 | 75.8 | 71.9 | 61.7 | 70.3 | 71.7 | 48
3 | CCN(CCO)CCCOc1ccc2c(Nc3cc(CC(=O)Nc4cccc(F)c4)[nH]n3)ncnc2c1 | 113 | 105 | 120 | 113 | 98.5 | 65.6 | 50.5 | 44.7 | 40.9 | 54.1 | 54 | 110 | 110 | 105 | 111 | 104 | 63.8 | 52.6 | 50.2 | 51.7 | 56.9 | 80.6 | 110 | 128 | 102 | 114 | 106 | 85.7 | 82.7 | 76.2 | 77.8 | 81.6 | 45.1
4 | CCc1cc(C(N)=S)ccn1 | 118 | 125 | 127 | 119 | 126 | 132 | 119 | 131 | 130 | 141 | 139 | 126 | 116 | 102 | 126 | 137 | 121 | 137 | 123 | 123 | 145 | 133 | 110 | 117 | 112 | 130 | 118 | 131 | 133 | 119 | 142 | 134 | 118
5 | CC(C)(F)C[C@H](N[C@@H](c1ccc(-c2ccc([S+](C)(=O)[O-])cc2)cc1)C(F)(F)F)C(=O)NC1(C#N)CC1 | 124 | 136 | 125 | 124 | 119 | 116 | 109 | 115 | 106 | 97.5 | 102 | 105 | 125 | 117 | 121 | 103 | 108 | 112 | 109 | 101 | 101 | 92.3 | 91.5 | 113 | 111 | 113 | 108 | 103 | 107 | 116 | 111 | 94.6 | 89.8
6 | OC1=CC2=C(C=C1)C(=O)\C(=C(O2)\C3=CC(=C(O)C=C3)O)O | 85.9 | 91.3 | 96.2 | 6.71 | 96.6 | 85 | 99.7 | 88.9 | 74.5 | 74.8 | 67.5 | 96.5 | 103 | 101 | 96.3 | 100 | 92 | 93.3 | 89.5 | 81.3 | 81.3 | 60.1 | 105 | 98 | 108 | 93 | 102 | 97.1 | 91.2 | 105 | 84 | 93.9 | 65.6
7 | CCCC(C)(COC(N)=O)COC(=O)NC(C)C (configuration not stated) | 116 | 122 | 132 | 127 | 145 | 130 | 127 | 125 | 137 | 150 | 129 |  |  |  |  |  |  |  |  |  |  |  | 107 | 123 | 125 | 138 | 143 | 131 | 127 | 130 | 123 | 141 | 140
8 | O=C([O-])C[C@H](O)C[C@H](O)/C=C/c1c(C2CC2)nc2ccccc2c1-c1ccc(F)cc1 | 108 | 116 | 122 | 114 | 111 | 112 | 116 | 134 | 109 | 97.8 | 23.7 | 114 | 109 | 110 | 122 | 116 | 119 | 129 | 115 | 101 | 86.4 | 22.9 | 101 | 104 | 130 | 120 | 125 | 116 | 112 | 132 | 109 | 87.7 | 12
9 | Cc1c(-c2cccc3c(CCCOc4cccc5ccccc45)c(C(=O)O)n(Cc4cccnc4)c23)c(COc2ccc(N3CCN([S+](=O)([O-])N(C)C)CC3)cc2)nn1C | 92.5 | 97.3 | 80.4 | 85.7 | 87.9 | 94.7 | 90.5 | 87.8 | 74.9 | 79.3 | 85.2 | 97 | 97.1 | 92.5 | 96.1 | 95.9 | 94.1 | 86 | 76.7 | 81.4 | 84.7 | 72.5 | 88.7 | 85.4 | 83.8 | 94.1 | 108 | 86.3 | 85.9 | 74.2 | 89.2 | 73.8 | 55.4
10 | CN1CCN(c2c(F)cc3c(=O)c(C(=O)O)cn(CCF)c3c2F)CC1 | 101 | 103 | 108 | 109 | 122 | 106 | 104 | 116 | 120 | 114 | 119 | 93.3 | 93.2 | 97.6 | 109 | 106 | 108 | 115 | 111 | 118 | 102 | 104 | 97.8 | 107 | 114 | 119 | 101 | 116 | 106 | 124 | 105 | 125 | 96.9
11 | Cc1ccccc1C(OCCN(C)C)c1ccccc1 (configuration not stated) | 121 | 112 | 120 | 120 | 120 | 115 | 125 | 125 | 127 | 117 | 116 |  |  |  |  |  |  |  |  |  |  |  | 102 | 117 | 145 | 138 | 135 | 143 | 142 | 122 | 116 | 125 | 57.5
12 | CC(=O)OC[C@H]1O[C@@H]([S-])[C@H](OC(C)=O)[C@@H](OC(C)=O)[C@@H]1OC(C)=O.CCP(CC)CC.[Au+] | 86.7 | 99.2 | 85.4 | 96.4 | 98.4 | 104 | 106 | 89.8 | 18.8 | 6.15 | 5 | 88.3 | 96.7 | 90.5 | 96.2 | 91.7 | 94.5 | 95.4 | 88.7 | 40.8 | 5.52 | 4.43 | 80.7 | 84.3 | 96.5 | 92 | 75.9 | 93.7 | 96.7 | 93.8 | 31.5 | 7.92 | 5.33
13 | CC(NC(C)(C)C)C(=O)c1cccc(Cl)c1 (configuration not stated) | 112 | 124 | 115 | 120 | 133 | 127 | 113 | 115 | 119 | 128 | 113 |  |  |  |  |  |  |  |  |  |  |  |  |  |  |  |  |  |  |  |  |  | 
14 | NC[C@@H]1O[C@H](O[C@H]2[C@@H](O)[C@H](O[C@@H]3[C@@H](O)[C@H](N)C[C@H](N)[C@H]3O[C@H]3O[C@H](CN)[C@@H](O)[C@H](O)[C@H]3N)O[C@@H]2CO)[C@H](N)[C@@H](O)[C@@H]1O.O=S(=O)(O)O.O=S(=O)(O)O.O=S(=O)(O)O | 95.3 | 105 | 99.2 | 107 | 111 | 107 | 96.8 | 108 | 87.2 | 98.5 | 94.9 | 92.2 | 90.5 | 86.8 | 96.1 | 96.5 | 85.7 | 92.8 | 90.1 | 89.9 | 79.4 | 83 | 103 | 82.8 | 110 | 113 | 101 | 110 | 110 | 106 | 107 | 88.5 | 92.9
